The text below walks through data of patent publication US20250368638A1, “BICYCLIC INHIBITORS OF NICOTINAMIDE […], COMPOSITIONS AND USES THEREOF” (President and Fellows of Harvard College, priority 2021, published 2025).

The target in one series is T1, recombinant human NNMT (Homo sapiens, UniProt P40261).
T1 sequence (P40261 1-264): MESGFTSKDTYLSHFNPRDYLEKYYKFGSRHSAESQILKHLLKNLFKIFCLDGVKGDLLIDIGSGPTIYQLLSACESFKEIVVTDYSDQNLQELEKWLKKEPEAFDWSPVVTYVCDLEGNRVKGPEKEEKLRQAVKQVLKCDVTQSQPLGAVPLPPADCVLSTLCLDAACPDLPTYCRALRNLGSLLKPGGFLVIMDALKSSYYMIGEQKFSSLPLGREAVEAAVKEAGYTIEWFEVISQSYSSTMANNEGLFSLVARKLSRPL
Put plainly: in vitro NNMT enzyme inhibition assay (Promega MTase-Glo Methyltransferase Assay). The conditions noted are these: 40 nM recombinant human NNMT, 8 μM nicotinamide, 6.7 μM SAM, 20 minutes. The class given is biochemical. How it is done: NNMT biochemical activity for was evaluated using the Promega Mtase-Glo Methyltransferase Assay kit. Assays were performed in a white, flat-bottomed 96 well plate. […] Reactions were performed for 20 minutes at room temperature. MTase-Glo reagent and MTase-Glo detection solution were added according to manufacturer's instructions and luminescence signal measured with a SpectraMax i3 plate reader and data analyzed with GraphPad Prism version 9. Scheme 16 depicts a visual summary of the Promega MTase-Glo Methyltransferase assay used to assess biochemical activity of novel inhibitors.

A further series can be described thus: FIG. 19. How it is done:
Table printed on a drawing sheet, FIG. 19
Footnotes: %Q: The percent of compound remaining after 60 minutes of exposure to liver microsomes
The patent's description of the figure: FIG. 19 is a table summarizing PK/PD data for compounds 1 to 3 and 11.
First reader's note: The CL value of Compound 11 (36.1) is boxed on the sheet.

Another series relates to K562 (ATCC) cells. Put plainly: Cellular potency: 1-MNA levels in K562 cells after compound incubation. The following applies: Homo sapiens, 24 h incubation. Format: cell-based. How it is done:
Cellular potency was measured in K562 (ATCC) cells via measuring (1-methyl nicotinamide) 1-MNA levels after compound incubation at varying concentrations overnight. Cells were plated at 1 million per well and were incubated for 24 h with compounds at indicated concentrations. Cells were collected by pipetting and extracted with 200 ul acetonitrile containing internal deuterated standard 10 ng/ml d4-1-MNA. Samples were analyzed on an Agilent 64-60 Triple Quad LC/MS with Agilent 1290 Infinity HPLC using a Restek Allure 5 um PPFP column 150 mm×2.1. The mobile phase A was 2.5 mM ammonium formate in water, and mobile phase B was methanol with 0.1% formic acid, delivered at 0.25 mL/min. The capillary voltage was set to 2400V and the nozzle at 300V. The drying gas temperature was 240° C., the drying gas flow rate was 4 L/min, and the nebulizer pressure was 40 psi. The mass spectrometer was run in multiple reaction monitoring mode. Mass transitions were m/z 137.1 à 94.1 for 1-MNA and m/z 141.1 à 98.1 for d4-MNA.

A short description of series [1]: Permeability assay in Caco-2 cells. The conditions noted are these: human; for Papp A→B at 2 h, 5 μM / Papp B→A at 2 h, 5 μM / efflux ratio at 2 h, 5 μM: Caco-2, pH 7.4; for recovery at 2 h, 5 µM: Caco-2. How it is done:
Preparation of Caco-2 Cells: 50 μL and 25 mL of cell culture medium were added to each well of the Transwell insert and reservoir, respectively. And then the HTS transwell plates were incubated at 37° C., 5% CO2 for 1 hour before cell seeding. […] Cell culture medium was replaced every other day, beginning no later than 24 hours after initial plating.
Preparation of Stock Solutions: The stock solutions of control and test compounds were prepared in DMSO at the concentration of 10 mM. Digoxin, Prazosin and propranolol were used as control compounds in this assay.
Assay Procedures: The Caco-2 plate was removed from the incubator and washed twice with pre-warmed HBSS (10 mM HEPES, pH 7.4), and then incubated at 37° C. for 30 minutes. The stock solutions of controls and Test compounds were diluted in DMSO to get 1 mM solutions and then diluted with HBSS (10 mM HEPES, pH 7.4) to get 5 μM working solutions. The final concentration of DMSO in the incubation system was 0.5%. To determine the rate of drug transport in the apical to basolateral direction. Add 125 μL of the test compounds to the Transwell insert (apical compartment), and transfer 50 μL sample (DO sample) immediately from the apical compartment to a new 96-well plate. Fill the wells in the receiver plate (basolateral compartment) with 235 μL of HBSS (10 mM HEPES, pH 7.4). To determine the rate of drug transport in the basolateral to apical direction. Add 285 μL of the test compounds to the receiver plate wells (basolateral compartment), and transfer 50 μL sample (DO sample) immediately from the basolateral compartment to a new 96-well plate. Fill the Transwell insert (apical compartment) with 75 μL of HBSS (10 mM HEPES, pH 7.4). Time 0 samples were prepared by transferring 50 μL of 5 μM working solution to wells of the 96-deepwell plate, followed by the addition of 200 μL cold acetonitrile containing appropriate internal standards (100 nM alprazolam, 200 nM labetalol, 200 nM caffeine and 200 nM diclofenac). The plates were incubated at 37° C. for 2 hours. […] Samples were vortexed for 5 minutes and then centrifuged at 3,220 g for 40 minutes. An aliquot of 100 μL of the supernatant was mixed with 100 μL of ultra-pure water to use for LC-MS/MS analysis. To determine the Lucifer Yellow leakage after 2 hour transport period, stock solution of Lucifer yellow was prepared in water and diluted with HBSS (10 mM HEPES, pH 7.4) to reach the final concentration of 100 μM. 100 μL of the Lucifer yellow solution was added to each Transwell insert (apical compartment), followed by filling the wells in the receiver plate (basolateral compartment) with 300 μL of HBSS (10 mM HEPES, pH 7.4). The plates were incubated at 37° C. for 30 minutes. 80 μL samples were removed directly from the apical and basolateral wells (using the basolateral access holes) and transferred to wells of new 96 wells plates.
(In general: Passage across Caco-2 layers is used to estimate intestinal permeability.)

The next series in a line: FIG. 20. From the text: Table printed on a drawing sheet, FIG. 20
The patent's description of the figure: FIG. 20 is a table summarizing mean PK parameters of various compound 11 samples after different PO dosages in female C57B16/N mice.
First reader's note: The asterisks on two AUC values are not explained on the sheet; the first grid row holds only the heading 'PK Parameter'.

The mark [2] stands for this setting: Caco-2, pH 7.4, Recovery (%) AP-BL.
Where [3] appears, read: Caco-2, pH 7.4, Recovery (%) BL-AP.

Where “and” joins values, the source holds several entries; their conditions need not be identical. Equal values may be shown once. Where only a bound is given, the exact number is not on record here.

On to `NC(=O)c1cnc2c(c1)CCN2` [Compound 1], for which the IC50 – broadly, the point on the concentration scale where inhibition reaches its midpoint – on recombinant human NNMT turned out to be 105 nM. Further, in “FIG. 19”, the “%Q (Human)” value is on record as 101.05%, the “%Q (Mouse)” value is listed as 88.98%, the “AUClast” value was 255 ng·h/mL and the “CL” value stood at 64.2 mL/min/kg. In addition, in the series “FIG. 19”, the “T1/2” value was found to be 10.9 min and the Vss (in general, the apparent volume that relates the amount in the body to the concentration in plasma or blood) was determined as 0.904 L/kg.
Regarding `Cc1c(C(N)=O)cnc2c1CC(C)N2` (stereo not shown) [Compound 18], the half-inhibitory concentration (IC50) at recombinant human NNMT was 848 nM.
For the molecule `Cc1c(C(N)=O)cnc2c1C[C@@H](C)N2` [Compound 19A], the IC50 on recombinant human NNMT was 28 nM and 28 to 43 nM; in the series on K562 (ATCC) cells, 12 nM.
For the molecule `C[C@H]1Nc2ncc(C(N)=O)cc2[C@@H]1C` [Compound 26A], the half-inhibitory concentration (IC50) amounted to 20 nM on recombinant human NNMT and 114 nM in the series on K562 (ATCC) cells.
Regarding `C[C@H]1O[C@@H](O[C@H]2[C@@H](O)C[C@H](O[C@H]3[C@@H](O)C[C@H](O[C@H]4CC[C@@]5(C)[C@H](CC[C@@H]6[C@@H]5C[C@@H](O)[C@]5(C)[C@@H](C7=CC(=O)OC7)CC[C@]65O)C4)O[C@@H]3C)O[C@@H]2C)C[C@H](O)[C@@H]1O` [Digoxin], in series [1], the Papp A→B (commonly how fast a substance crosses the layer from the apical side) at 2 h, 5 μM was determined as 0.67 ×10⁻⁶ cm/s; the basolateral-to-apical permeability (Papp B→A) (usually how fast a substance crosses the layer from the basolateral side) at 2 h, 5 μM came out at 19 ×10⁻⁶ cm/s; the efflux ratio – broadly, the permeability from basolateral to apical divided by that in the opposite direction, in the common usage – at 2 h, 5 μM was determined as 28.2. Moreover, the recovery at 2 h, 5 µM in series [1] (setting [2]) stood at 79.1%. In addition, the recovery at 2 h, 5 µM in series [1] (setting [3]) turned out to be 94.5%.
As to `COc1cc2nc(N3CCN(C(=O)c4ccco4)CC3)nc(N)c2cc1OC` [Prazosin], in series [1], the Papp A→B at 2 h, 5 μM was 9.44 ×10⁻⁶ cm/s; the Papp B→A at 2 h, 5 μM was found to be 28.9 ×10⁻⁶ cm/s; the efflux ratio at 2 h, 5 μM worked out at 3.06. Also, the recovery at 2 h, 5 µM in series [1] (setting [2]) came out at 77%. Moreover, the recovery at 2 h, 5 µM in series [1] (setting [3]) stood at 90.4%.
Consider `CC(C)NCC(O)COc1cccc2ccccc12` (stereo not shown) [Propranolol], for which, in series [1], the Papp A→B at 2 h, 5 μM was 26.9 ×10⁻⁶ cm/s; the Papp B→A at 2 h, 5 μM was determined as 16.6 ×10⁻⁶ cm/s; the efflux ratio at 2 h, 5 μM came out at 0.62. Further, the recovery at 2 h, 5 µM in series [1] (setting [2]) is 80%. Moreover, in series [1] (setting [3]), the recovery at 2 h, 5 µM is 88.5%.
For `C[C@@H]1Cc2cc(C(N)=O)cnc2N1` [compound 11], in the series “FIG. 20”, the “AUClast (h*ng/mL)” value is listed as 54,351 h*ng/mL; the “F(%)” value is above 100%; the “T1/2” value is 41.6 min and 50.5 min and 42.5 min; the Tmax (as a rule, the time from dosing to the highest level) was 20 min and 34.8 min.
